Experimental data published in the METLIN SMRT retention time set (Domingo-Almenara et al. 2019).

Assay: gradient 5% acetonitrile 3 min, to 50% in 2 min, to 85% in 15 min, held 3 min, 100 µL/min
Conditions: column: Zorbax Extend-C18 2.1 x 50 mm; eluents: water / acetonitrile, 0.1% formic acid
In short: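 Using water and acetonitrile that each contained 0.1% formic acid, mixtures of ~100 pure standards were separated at 100 μL/min on a Zorbax Extend-C18 column (2.1 × 50 mm, 1.8 μm). The HPLC fed a quadrupole time-of-flight mass spectrometer working in positive and negative ionization mode, with dead and dwell volumes of 40 μL and 900 μL. Data were acquired over 3 months. Retention time was read from computationally picked adduct peaks after manual inspection of each.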

| SMILES | RP-LC retention time |
| --- | --- |
| Cc1cccc(NC(=O)N2CCC3(CC2)N=C(c2ccccc2)C(=O)N3)c1 | 806 s |
| Cc1cccc(S(=O)(=O)N2CCCC(Cn3c(C)nc4cccnc43)C2)c1 (centres undefined) | 821 s |
| COC(=O)C1=CN(C)c2cc(N3CCC(Cc4ccccc4)CC3)c(F)cc2S1(=O)=O | 1100 s |
| COC(=O)c1cccc(C(=O)Nc2cccc(Cl)c2C)n1 | 976 s |
| COc1ccc(C2c3[nH]c4ccccc4c3CCN2C(=O)c2cccnc2)cc1 (centres undefined) | 887 s |
| CCOc1ccc(CN2CCC(NC(=O)Cc3cccnc3)C2)cn1 (centres undefined) | 731 s |
| O=C1CCC(NC(=O)OCc2ccccc2)(C(=O)OCc2ccccc2)O1 (centres undefined) | 830 s |
| CCOc1ccc(NC(=O)N2CCC(C(=O)NCc3csc(C)n3)CC2)cc1 | 652 s |
| CC(C)n1cnc(S(=O)(=O)N2CCC(C(=O)NCCc3ccccc3)CC2)c1 | 745 s |
| COc1cc(-c2ccc(C)cc2)nc2ccc(NC(=O)c3ccco3)cc12 | 713 s |
| CC1=NS(=O)(=O)N(C)C=C1C(=O)OCc1nc(-c2ccccc2F)no1 | 895 s |
| Cc1nnc(-c2ccc3ccn(CC(=O)N4CCN(c5cc(Cl)ccc5C)CC4)c3c2)o1 | 1020 s |
| Cc1ccc(C(=O)N2CCN(c3nnc4ccc(C(F)(F)F)cn34)CC2)s1 | 762 s |
| O=C(Nc1ccc(Cl)cc1)c1c(O)c2cccnc2n(Cc2ccccc2)c1=O | 1290 s |
| CC(C(=O)NCc1ccccc1F)n1c(=O)c(C(F)(F)F)nc2ccccc21 (centres undefined) | 1020 s |
| CN(C)c1ccc(-c2nn3c(CSc4ccccc4)nnc3s2)cc1 | 1080 s |
| O=C(Nc1ccc(Br)cc1F)Nc1c(-c2ccncc2)nc2ccccn12 | 652 s |
| Cc1ccccc1CNC(=O)Cn1c(=O)c2nnc(C)n2c2ncccc21 | 672 s |
| CCOc1cc(-c2nc(C3CC(=O)N(c4ccc(OC)cc4)C3)no2)cc(OCC)c1OCC (centres undefined) | 1040 s |
| O=C(c1ccc(SCCN2CCCCC2)nc1)N1CCN(c2ncccn2)CC1 | 605 s |
| CCCN(C)c1nccn2c(=O)n(CC(=O)Nc3cccc(C)c3)nc12 | 687 s |
| CCCCOC(=O)COc1cc(O)c2c(=O)cc(-c3ccccc3)oc2c1 | 1230 s |

| SMILES | RP-LC retention time |
| --- | --- |
| O=C(NCc1ccccc1Cl)c1ccc(=O)n(CCN2CCOCC2)c1 | 609 s |
| O=C(CN1C(=O)CCS(=O)(=O)c2ccccc21)Nc1ccc(Cl)cc1 | 797 s |
| COc1cccc(NC(=O)C2CC(=O)N(c3n[nH]c4cccc(F)c34)C2)c1 (centres undefined) | 737 s |
| CC(=O)N1CCN(S(=O)(=O)c2ccc(C(=O)O)cc2)CC1 | 591 s |
| CCN1CCCC1CNC(=O)c1nc(-c2ccc3c(c2)OCC(=O)N3C)no1 (centres undefined) | 617 s |
| Cc1ccc(NC(=O)N2CCCC(Cn3cnc4cccnc43)C2)cc1Cl (centres undefined) | 747 s |
| CN1C2CCC1CC(OC(c1ccccc1)c1ccc(Cl)cc1)C2 (centres undefined) | 862 s |
| CCCCN(CC)C(=O)c1cc2c(=O)oc3ccccc3c2n1C | 910 s |
| CCOC(=O)C(C)Oc1ccc2c(=O)c(Oc3ccccc3OCC)coc2c1 (centres undefined) | 971 s |
| Cc1cccc(CNC(=O)C2(C)Cn3cnc(C(=O)N4CCOCC4)c3C(=O)N2C2CC2)c1 (centres undefined) | 618 s |
| O=C(NC1CCN(c2ccc(F)cc2)C1=O)c1ccc(F)c(Cl)c1 (centres undefined) | 877 s |
| O=C(c1nc(-c2ccnc(N3CCOCC3)c2)no1)N1CCN(C2CCCCC2)CC1 | 608 s |
| Cc1ccc(-c2nnc(-c3cccc(S(=O)(=O)NC(C)C)c3)o2)cc1 | 984 s |
| CCCn1cnnc1C1CCCCN1C(=O)CCc1c(C)nn(C)c1C (centres undefined) | 589 s |
| Cc1cccc2c(=O)n(C3CCN(S(=O)(=O)c4cc(F)cc(F)c4)CC3)cnc12 | 1000 s |
| c1ccc(C2(c3ccccc3)CC2C2=NCCN2)cc1 (centres undefined) | 732 s |
| Cc1cccc(N2CCN(C(=O)C3CCN(c4cnc5nccnc5c4)CC3)CC2)c1C | 881 s |
| CCN(CC)c1nc2ccsc2c(=O)n1CCC(=O)NCCc1c[nH]c2ccccc12 | 822 s |
| CC(=O)Nc1cccc(-c2nc(-c3ccc4c(c3)oc(=O)n4C(C)C)no2)c1C | 873 s |
| CCCC(NC(=O)Cc1ccccc1C)C(=O)Nc1nc2ccccc2[nH]1 (centres undefined) | 704 s |
| CCc1nc(NC(=O)Cn2nc3c(cc2=O)CCCCC3)sc1C | 828 s |
| CC(C)C(=O)NCCn1c(=O)n(Cc2ccccc2)c2cccnc21 | 714 s |
